Data as given in PMC9467581 (Journal of Enzyme Inhibition and Medicinal Chemistry, 2022).
Counter-ions that a name gives are not always drawn. Like-named read-outs stand apart in the source and are kept apart here.

Legend:
[1] = molecular target: T1, eeAChE (AChE from Electrophorus electricus) (Electrophorus electricus, UniProt O42275); assay: biochemical; details: [S] = 121 µM; mean ± SD
Description: (§1) The inhibitory activity of 12a–12d against AChE and BuChE was carried out following minor modifications of the Ellman assay,[30] as reported previously[31] using Thermo Scientific^TM Varioskan^TM LUX microplate reader and Greiner F-bottom 96-well plates.

[2] = molecular target: T2, eqBuChE (BuChE from equine serum) (Equus caballus, UniProt P81908); assay: biochemical; type: biochemical; details: for BuChE selectivity: IC50(AChE)/IC50(BuChE); for IC50: [S] = 112 µM, mean ± SD
T2 construct: eqBuChE (BuChE from equine serum); from tissue; host or cells: equine serum
Description: as §1

[3] = molecular target: AChE; details: mixed inhibition of AChE; cited from earlier work
[4] = molecular target: BuChE; design: method as in PMID 33228403; details: mixed inhibition of BuChE; cited from earlier work
[5] = molecular target: T1, eeAChE (AChE from Electrophorus electricus); details: [S] = 121 µM; cited from earlier work

T1 sequence (O42275 24-633): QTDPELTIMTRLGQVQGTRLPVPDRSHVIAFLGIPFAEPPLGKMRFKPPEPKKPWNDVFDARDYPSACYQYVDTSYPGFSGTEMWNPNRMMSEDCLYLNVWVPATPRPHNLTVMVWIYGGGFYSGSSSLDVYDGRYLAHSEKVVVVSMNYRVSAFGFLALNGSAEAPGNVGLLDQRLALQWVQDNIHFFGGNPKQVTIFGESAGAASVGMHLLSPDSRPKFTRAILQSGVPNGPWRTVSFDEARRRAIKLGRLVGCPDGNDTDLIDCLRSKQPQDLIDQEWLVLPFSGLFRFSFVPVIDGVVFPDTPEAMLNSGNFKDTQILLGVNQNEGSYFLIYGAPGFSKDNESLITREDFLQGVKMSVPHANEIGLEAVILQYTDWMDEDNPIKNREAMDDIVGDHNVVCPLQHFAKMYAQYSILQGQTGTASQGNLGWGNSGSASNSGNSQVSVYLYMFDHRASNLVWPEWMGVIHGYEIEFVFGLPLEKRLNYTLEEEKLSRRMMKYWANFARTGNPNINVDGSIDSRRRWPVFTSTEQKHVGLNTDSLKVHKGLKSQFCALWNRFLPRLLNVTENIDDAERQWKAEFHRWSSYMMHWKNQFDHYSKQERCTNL
T2 sequence (P81908 whole entry): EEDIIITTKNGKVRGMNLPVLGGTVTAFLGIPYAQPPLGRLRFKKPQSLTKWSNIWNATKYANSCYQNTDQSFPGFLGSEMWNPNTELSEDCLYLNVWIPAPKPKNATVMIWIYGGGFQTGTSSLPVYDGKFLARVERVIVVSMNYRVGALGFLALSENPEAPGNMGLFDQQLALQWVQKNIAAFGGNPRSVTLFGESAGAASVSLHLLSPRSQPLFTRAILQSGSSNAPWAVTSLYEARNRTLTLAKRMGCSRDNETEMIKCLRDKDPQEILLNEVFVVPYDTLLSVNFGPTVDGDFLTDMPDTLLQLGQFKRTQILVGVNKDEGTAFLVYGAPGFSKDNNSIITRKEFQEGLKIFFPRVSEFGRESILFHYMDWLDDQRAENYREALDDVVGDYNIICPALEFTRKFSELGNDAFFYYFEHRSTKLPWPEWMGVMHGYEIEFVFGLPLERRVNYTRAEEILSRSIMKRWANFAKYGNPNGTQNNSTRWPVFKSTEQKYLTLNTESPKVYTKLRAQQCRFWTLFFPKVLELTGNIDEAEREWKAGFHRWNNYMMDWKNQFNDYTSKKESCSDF

| SMILES | IC50 [1] [µM] | BuChE selectivity [2] | IC50 [2] [µM] | also measured |
| --- | --- | --- | --- | --- |
| OC[C@@H]1[C@@H](O)[C@H](O)[C@@H](O)CN1CCCCCCn1cc(Cn2nnc3ccccc32)nn1 [Compound 12b] | 65 ± 2 | 9.7 | 6.7 ± 0.7 | fold more potent BuChE inhibitor than 1-DNJ [2]: 1.5 fold; uncompetitive inhibition constant αKi ([2]; BuChE, Cornish-Bowden plots): 12 ± 1 µM; type of inhibition ([2]; BuChE, Cornish-Bowden plots (1/V vs. [I] and [S]/V vs. [I])): mixed inhibitor; Ki ([2]; BuChE, Cornish-Bowden plots, read-out: competitive inhibition constant Ki): 4.9 ± 0.4 µM |
| OC[C@@H]1[C@@H](O)[C@H](O)[C@@H](O)CN1CCCCCCCCCCn1cc(Cn2nnc3ccccc32)nn1 [Compound 12d, N-(1-(2-((1H-benzo[1,2,3]triazol-1-yl)methyl)-1H-1,2,3-triazol-1-yl)decyl)-1-deoxynojirimycin hydrochloride] | > 500 |  | 17 ± 0.7 |  |
| OC[C@@H]1[C@@H](O)[C@H](O)[C@@H](O)CN1CCCCCCCCn1cc(Cn2nnc3ccccc32)nn1 [Compound 12c, N-(1-(2-((1H-benzo[1,2,3]triazol-1-yl)methyl)-1H-1,2,3-triazol-1-yl)octyl)-1-deoxynojirimycin hydrochloride] | > 500 | >19 | 26 ± 0.7 |  |
| OC[C@@H]1[C@@H](O)[C@H](O)[C@@H](O)CN1Cc1cn(CCCCCCNc2c3c(nc4ccccc24)CCCC3)nn1 [Compound 9] |  |  |  | Ki [3]: 7.1 nM; αKi [3]: 17.4 nM |
| COc1ccc(CCOCCCCCCN2C[C@H](O)[C@@H](O)[C@H](O)[C@H]2CO)cc1OC [Compound 10] |  |  |  | Ki [4]: 1400 nM; αKi [4]: 4.5 µM |
| OC[C@@H]1[C@@H](O)[C@H](O)[C@@H](O)CN1CCCCCNC(=[Se])Nc1ccc(Br)cc1 [Compound 8] |  |  |  | Ki [3]: 5800 nM |
| OC[C@@H]1[C@@H](O)[C@H](O)[C@@H](O)CN1CCCn1cc(Cn2nnc3ccccc32)nn1 [Compound 12a] | > 500 | >10 | 50 ± 3 |  |
| OC[C@H]1NC[C@H](O)[C@@H](O)[C@@H]1O [Compound 4, 1-deoxynojirimycin, reference compound] |  | >10 |  | IC50 [5]: > 100 µM |
